Laboratory results as given in US12226424B2, “Target protein degradation compounds, their anti-tumor use, their intermediates and use of intermediates” (ShanghaiTech University, priority 2018, dated 2025).
Like-named read-outs stand apart in the source and are kept apart here.

Key:
[1] = system: MDA-MB-231 cells; experiment: Half inhibitory concentration (IC50) on BET-expressing tumor cells, CCK-8, MDA-MB-231; format: cell-based; conditions: Homo sapiens, 48/72 h, read-out: IC50 (nM)/MDA-MB-231 cell line
Method: (§1) BET-expressing cells MV-4-11 cells (human B granulocytic leukemia cells), MDA-MB-231 cells (human breast cancer cells), MDA-MB-468 cells (human breast cancer cells), MDA-MB-453 Cells (human breast cancer cells), MM1S cells (myeloma (immunoglobulin A lambda), B lymphoblasts) and SR cells (human large cell immunoblast lymphoma) were purchased from the American Type Culture Collection (ATCC).
(§2) The cells used in this present disclosure were cultured in a 37° C. incubator containing 5% CO2. The complete cell culture medium was RPMI 1640/IMDM/DMEM medium with 10% fetal bovine serum, and the final concentrations of penicillin and streptomycin were 100 U/mL, respectively. All cells were tested negative for mycoplasma with mycoplasma detection kit before the experiment.
(§3) Determination of the Half Inhibitory Concentration (IC50) of PROTAD Compounds on Tumor Cells
(§4) MV-411 cells, MM1S cells and SR cells were seeded in 100 μL IMDM/RPMI1640/DMEM complete medium at a density of 15000/10000 cells/well; MDA-MB-231 cells, MDA-MB-468 cells, and MDA-MB453 cells were seeded in 100 μL IMDM/RPMI1640/DMEM complete medium at a density of 3000/5000 cells/well, respectively. 100 μL of the inoculated cells were treated with 0.5 μL diluted PROTAD compounds of the present disclosure to be tested at 10 successively decreasing concentrations (starting at the highest concentration of 10 μM; 5-fold serial dilutions). After the cells were treated with the tested drugs 48/72 h, the cell viability was determined according to the CCK-8 reagent manual. The negative control was DMSO, and the positive control was a commercial inhibitor. After CCK-8 treatment for 2 h, the value of O.D.450 was measured using a microplate reader.

[2] = system: MDA-MB-468 cells; experiment: Half inhibitory concentration (IC50) on BET-expressing tumor cells, CCK-8, MDA-MB-468; format: cell-based; conditions: Homo sapiens, 48/72 h, read-out: IC50 (nM)/MDA-MB-468 cell line
Method: as §1, §2, §3, §4

[3] = system: MDA-MB-453 cells; experiment: Half inhibitory concentration (IC50) on BET-expressing tumor cells, CCK-8, MDA-MB-453; format: cell-based, human; conditions: 48/72 h, read-out: IC50 (nM)/MDA-MB-453 cell line
Method: as §1, §2, §3, §4

[4] = system: MM1S cells; experiment: Half inhibitory concentration (IC50) on BET-expressing tumor cells, CCK-8, MM1S; format: cell-based; conditions: Homo sapiens, MM1.S, 48/72 h, read-out: IC50 (nM)/MM1S cell line
Method: as §1, §2, §3, §4

[5] = system: MV-4-11 cells; experiment: Half inhibitory concentration (IC50) on BET-expressing tumor cells, CCK-8, MV-4-11; conditions: Homo sapiens, MV4-11, read-out: IC50 (nM)/MV-4-11 cell line, MV-4-11 cells, 48/72 h, CCK-8
[6] = system: SR cells; experiment: Half inhibitory concentration (IC50) on ALK-positive SR cell proliferation (CCK-8); format: cell-based; conditions: Homo sapiens; SR cells, 72 h drug treatment, CCK-8; read-out: IC50 (nM)/ SR cell line
How it was run: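 SR cells seeded at 10,000 cells/well in RPMI1640 and treated with PROTAD compounds at 10 concentrations (top 10 μM, 5-fold dilutions) for 72 h at 37° C, 5% CO2. Viability read by CCK-8 (2 h) at OD450; DMSO as negative control.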

[7] = biological target: T1, ALK protein (Homo sapiens, UniProt Q9UM73); experiment: Western-blot half degradation concentration (DC50) of ALK protein in SR cells; format: cell-based; conditions: 24 h drug treatment, read-out: DC50 (nM)/ SR cell line
Method: (§5) ALK-positive SR cells (human large cell immunoblastic lymphoma) were purchased from the American Type Culture Collection (ATCC); H3122 cells (human non-small cell lung cancer) were from the Shanghai University of Science and Technology Lin Haifan's research group.
(§6) The cells used in this present disclosure were cultured in a 37° C. incubator containing 5% CO2.
(§7) DC50 (drug concentration corresponding to protein degradation to 50%) calculation: according to the gray value of the corresponding Western blotting band after drug treatment, fitting the relationship curve between drug concentration and gray value to calculate the drug concentration range corresponding to half of the gray value.
Target sequence in this assay (Q9UM73 with tags, fused parts or gaps): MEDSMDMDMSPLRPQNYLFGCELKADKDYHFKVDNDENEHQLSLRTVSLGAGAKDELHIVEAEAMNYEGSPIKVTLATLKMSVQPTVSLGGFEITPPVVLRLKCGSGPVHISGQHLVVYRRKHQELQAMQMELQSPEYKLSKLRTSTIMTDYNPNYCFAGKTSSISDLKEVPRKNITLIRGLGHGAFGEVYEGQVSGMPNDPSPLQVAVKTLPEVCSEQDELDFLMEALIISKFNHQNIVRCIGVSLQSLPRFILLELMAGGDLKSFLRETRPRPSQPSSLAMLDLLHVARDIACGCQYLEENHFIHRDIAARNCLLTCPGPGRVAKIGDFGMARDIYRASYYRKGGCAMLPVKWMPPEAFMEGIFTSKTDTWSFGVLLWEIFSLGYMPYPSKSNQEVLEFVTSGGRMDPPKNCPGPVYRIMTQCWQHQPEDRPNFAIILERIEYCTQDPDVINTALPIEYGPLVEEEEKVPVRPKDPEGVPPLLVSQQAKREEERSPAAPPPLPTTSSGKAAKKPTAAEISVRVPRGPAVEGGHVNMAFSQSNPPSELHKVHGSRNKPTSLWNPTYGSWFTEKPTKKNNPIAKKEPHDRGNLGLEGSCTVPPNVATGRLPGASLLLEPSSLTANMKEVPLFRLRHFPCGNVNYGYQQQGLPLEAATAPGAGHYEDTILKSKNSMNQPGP

[8] = biological target: T1, ALK protein; experiment: Western-blot half degradation concentration (DC50) of ALK protein in H3122 cells; format: cell-based; conditions: 24 h drug treatment, read-out: DC50 (nM)/ H3122 cell line
Method: as §5, §6, §7
Target sequence in this assay (Q9UM73 with tags, fused parts or gaps): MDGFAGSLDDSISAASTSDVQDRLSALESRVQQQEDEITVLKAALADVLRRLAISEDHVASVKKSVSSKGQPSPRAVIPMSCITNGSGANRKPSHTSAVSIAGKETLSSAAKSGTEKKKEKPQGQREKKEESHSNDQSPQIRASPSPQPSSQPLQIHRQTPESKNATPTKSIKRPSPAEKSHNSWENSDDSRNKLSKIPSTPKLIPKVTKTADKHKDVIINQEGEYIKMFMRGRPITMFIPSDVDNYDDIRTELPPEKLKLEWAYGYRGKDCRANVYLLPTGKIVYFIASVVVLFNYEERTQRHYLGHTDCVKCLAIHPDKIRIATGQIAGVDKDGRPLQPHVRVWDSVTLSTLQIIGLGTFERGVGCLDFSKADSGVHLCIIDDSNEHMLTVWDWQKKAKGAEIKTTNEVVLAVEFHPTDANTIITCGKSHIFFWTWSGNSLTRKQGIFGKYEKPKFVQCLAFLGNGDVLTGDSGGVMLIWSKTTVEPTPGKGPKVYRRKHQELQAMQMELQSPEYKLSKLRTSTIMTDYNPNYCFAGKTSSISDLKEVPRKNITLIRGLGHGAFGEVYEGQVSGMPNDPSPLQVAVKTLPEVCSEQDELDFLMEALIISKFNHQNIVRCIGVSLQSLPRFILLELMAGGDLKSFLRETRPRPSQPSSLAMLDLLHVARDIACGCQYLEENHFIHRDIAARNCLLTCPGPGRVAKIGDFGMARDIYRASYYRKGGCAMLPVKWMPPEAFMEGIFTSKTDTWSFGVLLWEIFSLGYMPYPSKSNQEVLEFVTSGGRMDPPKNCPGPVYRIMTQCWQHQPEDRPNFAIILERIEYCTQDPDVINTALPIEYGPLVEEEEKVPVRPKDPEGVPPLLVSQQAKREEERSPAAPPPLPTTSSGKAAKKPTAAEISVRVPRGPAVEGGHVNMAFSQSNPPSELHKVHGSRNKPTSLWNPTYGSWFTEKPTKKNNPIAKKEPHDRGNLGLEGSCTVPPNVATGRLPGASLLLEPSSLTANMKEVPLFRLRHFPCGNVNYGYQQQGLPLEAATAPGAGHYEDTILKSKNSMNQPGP

[9] = Homo sapiens, MDA-MB-453, MDA-MB-453 cells

Row | SMILES | DC50 [7] | DC50 [8] | IC50 ([3]; MDA-MB-453 cells) | IC50 [1] | IC50 [2] | IC50 [3, 9] | IC50 [4] | IC50 [5] | IC50 [6]
1 | Cc1sc2c(c1C)C(c1ccc(Cl)cc1)=N[C@@H](CC(=O)NCCCSc1cccc3c1C(=O)N(C1CCC(=O)NC1=O)C3=O)c1nnc(C)n1-2 (stereo partly drawn) [SIAIS171013, 2-((S)-4-(4-chlorophenyl)-2,3,9-trimethyl-6H-thieno[3,2-f][1,2,4]triazolo[4,3-a][1,4]diazepin-6-yl)-N-(3-((2-(2,6-dioxopiperidin-3-yl)-1,3-dioxoisoindolin-4-yl)thio)propyl)acetamide] | – | – | – | > 2820 nM | > 300 nM | 1090 nM | 22.6 nM | 8.6 ± 8.7 nM | –
2 | Cc1sc2c(c1C)C(c1ccc(Cl)cc1)=N[C@@H](CC(=O)NCCCCCCCCSc1cccc3c1CN(C1CCC(=O)NC1=O)C3=O)c1nnc(C)n1-2 (stereo partly drawn) [SIAIS171145, 2-((S)-4-(4-chlorophenyl)-2,3,9-trimethyl-6H-thieno[3,2-f][1,2,4]triazolo[4,3-a][1,4]diazepin-6-yl)-N-(8-((2-(2,6-dioxopiperidin-3-yl)-1-oxoisoindolin-4-yl)thio)octyl)acetamide] | – | – | 222 nM | 537 ± 148 nM | 948 ± 241 nM | 135 nM | 1.2 nM | 2 ± 1.8 nM | –
3 | COc1cc(N2CCN(C(=O)CCCCCSc3cccc4c3C(=O)N(C3CCC(=O)NC3=O)C4=O)CC2)ccc1Nc1ncc(Cl)c(Nc2ccccc2P(C)(C)=O)n1 (centres unmarked) [SIAIS1197121, 4-((6-(4-(4-((5-chloro-4-((2-(dimethylphosphoryl)phenyl)amino)pyrimidin-2-yl)amino)-3-methoxyphenyl)piperazin-1-yl)-6-oxohexyl)thio)-2-(2,6-dioxopiperidin-3-yl)isoindoline-1,3-dione] | 50 to 500 nM | 500 nM | – | – | – | – | – | – | 7.4 ± 4.8 nM
4 | COc1cc(N2CCC(NC(=O)CCCCCSc3cccc4c3C(=O)N(C3CCC(=O)NC3=O)C4=O)CC2)ccc1Nc1ncc(Cl)c(Nc2ccccc2P(C)(C)=O)n1 (centres unmarked) [SIAIS164141, N-(1-(4-((5-chloro-4-((2-(dimethylphosphoryl)phenyl)amino)pyrimidin-2-yl)amino)-3-methoxyphenyl)piperidin-4-yl)-6-((2-(2,6-dioxopiperidin-3-yl)-1,3-dioxoisoindolin-4-yl)thio)hexanamide] | 1 to 50 nM | 50 nM | – | – | – | – | – | – | 3.2 ± 2.4 nM
5 | COc1cc(N2CCC(N3CCN(C(=O)CCSc4cccc5c4CN(C4CCC(=O)NC4=O)C5=O)CC3)CC2)ccc1Nc1ncc(Cl)c(Nc2ccccc2P(C)(C)=O)n1 (centres unmarked) [SIAIS219068, 3-(4-((3-(4-(1-(4-((5-chloro-4-((2-(dimethylphosphoryl)phenyl)amino)pyrimidin-2-yl)amino)-3-methoxyphenyl)piperidin-4-yl)piperazin-1-yl)-3-oxopropyl)thio)-1-oxoisoindolin-2-yl)piperidine-2,6-dione] | 1 to 10 nM | – | – | – | – | – | – | – | 1.7 ± 0.8 nM
6 | COc1cc(N2CCC(N3CCN(C(=O)CCSc4cccc5c4C(=O)N(C4CCC(=O)NC4=O)C5=O)CC3)CC2)ccc1Nc1ncc(Cl)c(Nc2ccccc2P(C)(C)=O)n1 (centres unmarked) [SIAIS164063, 4-((3-(4-(1-(4-((5-chloro-4-((2-(dimethylphosphoryl)phenyl)amino)pyrimidin-2-yl)amino)-3-methoxyphenyl)piperidin-4-yl)piperazin-1-yl)-3-oxopropyl)thio)-2-(2,6-dioxopiperidin-3-yl)isoindoline-1,3-dione] | 500 nM | 500 nM | – | – | – | – | – | – | 15.7 ± 9.8 nM

The next lines start with results.

Row | DC50 [7] | DC50 [8] | IC50 ([3]; MDA-MB-453 cells) | SMILES | IC50 [1] | IC50 [2] | IC50 [3, 9] | IC50 [4] | IC50 [5] | IC50 [6]
7 | 5.2 nM | 173 nM | – | COc1cc(N2CCC(N3CCN(C(=O)CCCCCSc4cccc5c4C(=O)N(C4CCC(=O)NC4=O)C5=O)CC3)CC2)ccc1Nc1ncc(Cl)c(Nc2ccccc2P(C)(C)=O)n1 (centres unmarked) [SIAIS164065, 4-((6-(4-(1-(4-((5-chloro-4-((2-(dimethylphosphoryl)phenyl)amino)pyrimidin-2-yl)amino)-3-methoxyphenyl)piperidin-4-yl)piperazin-1-yl)-6-oxohexyl)thio)-2-(2,6-dioxopiperidin-3-yl)isoindoline-1,3-dione] | – | – | – | – | – | 2.9 ± 2.7 nM
8 | 0.1 to 10 nM | – | – | COc1cc(N2CCC(N3CCN(C(=O)CCCCSc4cccc5c4CN(C4CCC(=O)NC4=O)C5=O)CC3)CC2)ccc1Nc1ncc(Cl)c(Nc2ccccc2P(C)(C)=O)n1 (centres unmarked) [SIAIS219070, 3-(4-((5-(4-(1-(4-((5-chloro-4-((2-(dimethylphosphoryl)phenyl)amino)pyrimidin-2-yl)amino)-3-methoxyphenyl)piperidin-4-yl)piperazin-1-yl)-5-oxopentyl)thio)-1-oxoisoindolin-2-yl)piperidine-2,6-dione] | – | – | – | – | – | 0.5 ± 0.3 nM
9 | 1.1 nM | 49 nM | – | COc1cc(N2CCC(N3CCN(C(=O)CCCSc4cccc5c4C(=O)N(C4CCC(=O)NC4=O)C5=O)CC3)CC2)ccc1Nc1ncc(Cl)c(Nc2ccccc2P(C)(C)=O)n1 (centres unmarked) [SIAIS164064, 4-((4-(4-(1-(4-((5-chloro-4-((2-(dimethylphosphoryl)phenyl)amino)pyrimidin-2-yl)amino)-3-methoxyphenyl)piperidin-4-yl)piperazin-1-yl)-4-oxobutyl)thio)-2-(2,6-dioxopiperidin-3-yl)isoindoline-1,3-dione] | – | – | – | – | – | 4.4 ± 2.5 nM
10 | 6 nM | 13 nM | – | COc1cc(N2CCC(N3CCN(C(=O)CSc4cccc5c4C(=O)N(C4CCC(=O)NC4=O)C5=O)CC3)CC2)ccc1Nc1ncc(Cl)c(Nc2ccccc2P(C)(C)=O)n1 (centres unmarked) [SIAIS164062, 4-((2-(4-(1-(4-((5-chloro-4-((2-(dimethylphosphoryl)phenyl)amino)pyrimidin-2-yl)amino)-3-methoxyphenyl)piperidin-4-yl)piperazin-1-yl)-2-oxoethyl)thio)-2-(2,6-dioxopiperidin-3-yl)isoindoline-1,3-dione] | – | – | – | – | – | 11.6 ± 6.2 nM
11 | 5.6 nM | 11 nM | – | COc1cc(N2CCC(N3CCN(C(=O)CCCCSc4cccc5c4C(=O)N(C4CCC(=O)NC4=O)C5=O)CC3)CC2)ccc1Nc1ncc(Cl)c(Nc2ccccc2P(C)(C)=O)n1 (centres unmarked) [SIAIS164066, 4-((5-(4-(1-(4-((5-chloro-4-((2-(dimethylphosphoryl)phenyl)amino)pyrimidin-2-yl)amino)-3-methoxyphenyl)piperidin-4-yl)piperazin-1-yl)-5-oxopentyl)thio)-2-(2,6-dioxopiperidin-3-yl)isoindoline-1,3-dione] | – | – | – | – | – | 4.2 ± 2.9 nM
12 | 4.1 nM | 11 nM | – | COc1cc(N2CCC(N3CCN(C(=O)CCCCCCSc4cccc5c4C(=O)N(C4CCC(=O)NC4=O)C5=O)CC3)CC2)ccc1Nc1ncc(Cl)c(Nc2ccccc2P(C)(C)=O)n1 (centres unmarked) [SIAIS164067, 4-((7-(4-(1-(4-((5-chloro-4-((2-(dimethylphosphoryl)phenyl)amino)pyrimidin-2-yl)amino)-3-methoxyphenyl)piperidin-4-yl)piperazin-1-yl)-7-oxoheptyl)thio)-2-(2,6-dioxopiperidin-3-yl)isoindoline-1,3-dione] | – | – | – | – | – | 5.7 ± 3.9 nM
13 | 0.1 to 10 nM | – | – | COc1cc(N2CCC(N3CCN(C(=O)CCCCCCSc4cccc5c4CN(C4CCC(=O)NC4=O)C5=O)CC3)CC2)ccc1Nc1ncc(Cl)c(Nc2ccccc2P(C)(C)=O)n1 (centres unmarked) [SIAIS219072, 3-(4-((7-(4-(1-(4-((5-chloro-4-((2-(dimethylphosphoryl)phenyl)amino)pyrimidin-2-yl)amino)-3-methoxyphenyl)piperidin-4-yl)piperazin-1-yl)-7-oxoheptyl)thio)-1-oxoisoindolin-2-yl)piperidine-2,6-dione] | – | – | – | – | – | 0.8 ± 0.5 nM
